The OligoGym collection
Values joined by “and” are separate entries in the source; they are usually repeats but may differ in a detail not shown here. Equal entries are not always repeated. After the bases stand the sugars from the 5' end (letter, count) and the backbone: PS all phosphorothioate, else s phosphorothioate and o phosphodiester by linkage. Methylation of C is not given here. e = 2'-O-(2-methoxyethyl) (MOE); k = constrained ethyl (cEt); d = 2'-deoxy (DNA)

Target: IRF4
Details: ASO

Sequence	target mRNA inhibition (SK-MEL-28, 4 µM)	target mRNA inhibition (MM.1R, 1 µM)	other results
GGTCTGGAAACTCCTC (sugars k3 d10 k3, PS)	52%		target mRNA inhibition (MM.1R, 0.074 µM): 13%; target mRNA inhibition (MM.1R, 0.222 µM): 14%; target mRNA inhibition (MM.1R, 0.666 µM): 12%; target mRNA inhibition (MM.1R, 2 µM): 17%; target mRNA inhibition (SK-MEL-28, 0.185 µM): 1%; target mRNA inhibition (SK-MEL-28, 5 µM): 63%; target mRNA inhibition (SK-MEL-28, 15 µM): 86%
GTGTCTAAAGTCCCAT (sugars k3 d10 k3, PS)		18% and 28%	
CCTTAGGAACGAAGAG (sugars k3 d10 k3, PS)		-6%	
AATGTGTATTACTCTT (sugars kkddddddddddkeke, PS)		8% and 22%	
CTGCTTGAGGTTTTCC (sugars k3 d10 k3, PS)	74%		
CCACTGTTAAAGCAGC (sugars k3 d10 k3, PS)	66%		
ATTATAGAGCATCACT (sugars k3 d10 k3, PS)		-6%	
TTACATCTTACTTCCC (sugars k3 d10 k3, PS)	42%		
GATGAGGGACCAGAAC (sugars k3 d10 k3, PS)	20%		
AAACGCAGAGCCAGTA (sugars k3 d10 k3, PS)	37%		
ACACAAGTCTTAGGTG (sugars k3 d10 k3, PS)		-153%	
GCCTAGAGGTGCCTTC (sugars k3 d10 k3, PS)		13%	
GAACACCATGCCCAAC (sugars k3 d10 k3, PS)	7%		
AGACCAATTTATGCCA (sugars k3 d10 k3, PS)		7%	
CCCAAATGACTTAGTC (sugars k3 d10 k3, PS)	32%		
CCGTCCCAGTAGATCC (sugars k3 d10 k3, PS)	25%		
AGTTGTAAATGAGTCG (sugars k3 d9 k3 e1, PS)		87%	target mRNA inhibition (MM.1R, 0.074 µM): 27%; target mRNA inhibition (MM.1R, 0.222 µM): 61%; target mRNA inhibition (MM.1R, 0.666 µM): 80%; target mRNA inhibition (MM.1R, 2 µM): 95%
AAAAGGTTCCTGTCAC (sugars k3 d10 k3, PS)		-5%	
AAATCACTTGTCTTGG (sugars k3 d10 k3, PS)	49%		
TGTTACTTGCCACAGT (sugars k3 d10 k3, PS)	39%		
TGTGCTTGCCAAGCCT (sugars kkddddddddddkeke, PS)		26% and 30%	
ATACATTTCTTTTACG (sugars k3 d10 k3, PS)	22%		
AACTTTTACCTGGTAT (sugars k3 d10 k3, PS)	28%		

Sequence	target mRNA inhibition (SK-MEL-28, 4 µM)	target mRNA inhibition (MM.1R, 1 µM)	other results
GACAGCCGAAGCATTT (sugars k3 d10 k3, PS)		6%	
CACGAGGTTGCCGAGA (sugars k3 d10 k3, PS)	64%	48%	target mRNA inhibition (MM.1R, 0.0625 µM): -3%; target mRNA inhibition (MM.1R, 0.074 µM): 4%; target mRNA inhibition (MM.1R, 0.222 µM): 7%; target mRNA inhibition (MM.1R, 0.25 µM): 9%; target mRNA inhibition (MM.1R, 0.666 µM): 22%; target mRNA inhibition (MM.1R, 2 µM): 34%; target mRNA inhibition (MM.1R, 4 µM): 62%
TAGCATGTATGCATTC (sugars k3 d10 k3, PS)	52%		
TCACCTGAAGGATTTG (sugars k3 d10 k3, PS)	25%		
AATGACTTAGTCAGAA (sugars k3 d10 k3, PS)	27%		
GAAGGATGGGACCGCC (sugars k3 d10 k3, PS)	41%		
TTCATGTAAAGTCTGC (sugars k3 d10 k3, PS)		57% and 55%	
CTGAATTGTTACTAAA (sugars k3 d10 k3, PS)	21%		
TACCAACGACAGCATA (sugars k3 d10 k3, PS)	61%		
TGGGATTATATACTGG (sugars k2 d9 e3 k2, PS)		54%	
AACTAATGTCCCCAGG (sugars k3 d10 k3, PS)		-12%	
TTGATGTGATAGCTGA (sugars kdddddddddkekeke, PS)		34%	
GCCACTGGCGGAGCTT (sugars k3 d10 k3, PS)	23%		
AAGTGTCTAAAGTCCC (sugars kkdddddddddekeke, PS)		13% and -1%	
AAACGAGTTGACACAG (sugars k3 d10 k3, PS)	20%		
GCCTAGCATGGATCCT (sugars k3 d10 k3, PS)		-4%	
CAGCAAAGAGGGTCAC (sugars k3 d10 k3, PS)	61%		
CTTCACTGTTAGCTAC (sugars k3 d10 k3, PS)	51%		
AGGAAGCCGTTCCTTT (sugars k3 d10 k3, PS)	42%		
TCCAGAAAATTCAGCT (sugars k3 d10 k3, PS)	48%		
GTTCCAGGAGATATTA (sugars k3 d10 k3, PS)	52%		
TAACTAAAACTGCATC (sugars k3 d10 k3, PS)	10%		
AGCAGAACGAGGTAAA (sugars k3 d10 k3, PS)	70%		
